Measurements reported in ChEMBL document CHEMBL1938304, “Synthesis, characterization and activity of new phosphonate dipeptides as potential inhibitors of VanX” (Bioorg Med Chem Lett, 2012).
Active and inactive are the calls of the source. No cut-off for these calls is given here.

What was measured:
[1] = Inhibition of metallo-betalactamase CCrA using penicillin G as substrate up to 1 mM and pH 7
[2] = target: T1, D-alanyl-D-alanine dipeptidase (Enterococcus faecium, UniProt Q06241); assay: Inhibition of Enterococcus faecium VanX overexpressed in Escherichia coli BL21 (DE3) cells using D-ala-D-ala as substrate preincubated for 30 mins measured after 150 secs by modified Cd-ninhydrin method
T1 sequence (Q06241 whole entry): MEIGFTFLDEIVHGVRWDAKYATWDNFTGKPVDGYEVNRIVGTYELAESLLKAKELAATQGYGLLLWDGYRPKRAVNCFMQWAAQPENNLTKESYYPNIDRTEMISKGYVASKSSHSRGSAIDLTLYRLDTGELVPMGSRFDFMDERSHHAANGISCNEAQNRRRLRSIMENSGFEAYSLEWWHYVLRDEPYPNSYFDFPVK

[3] = Inhibition of metallo-betalactamase L1 using penicillin G as substrate up to 1 mM and pH 7
[4] = Inhibition of metallo-betalactamase ImiS using penicillin G as substrate up to 1 mM and pH 7
[5] = target: T1, D-alanyl-D-alanine dipeptidase; assay: Competitive inhibition of Enterococcus faecium VanX overexpressed in Escherichia coli BL21 (DE3) cells using D-ala-D-ala as substrate preincubated for 3 mins measured after 150 secs by modified Cd-ninhydrin method
[6] = target: T2, D-alanyl-D-alanine dipeptidase (Enterococcus faecium) (UniProt Q06241); assay: Inhibition of Enterococcus faecium VanX overexpressed in Escherichia coli BL21 (DE3) cells using D-ala-D-ala as substrate up to 5 mM preincubated for 30 mins measured after 150 secs by modified Cd-ninhydrin method
T2 sequence (whole entry): T1 sequence (Q06241 whole entry)

Row | SMILES | inhibition [1] | IC50 [2] [µM] | inhibition [3] | inhibition [4] | IC50 [5] [µM] | inhibition [6]
1 | C[C@H](N)P(=O)(O)OCC(=O)O | inactive | 480 | inactive | inactive | – | –
2 | CC(C)[C@@H](OP(=O)(O)[C@H](C)N)C(=O)O | inactive | 2820 | inactive | inactive | – | –
3 | CC[C@H](C)[C@@H](OP(=O)(O)[C@H](C)N)C(=O)O | inactive | 1310 | inactive | inactive | – | –
4 | C[C@H](N)P(=O)(O)O[C@H](C)C(=O)O | inactive | – | inactive | inactive | 760 | –
5 | C[C@H](N)P(=O)(O)O[C@H](CCC(=O)O)C(=O)O | inactive | – | inactive | inactive | – | inactive
6 | CC(C)C[C@@H](OP(=O)(O)[C@H](C)N)C(=O)O | inactive | 1080 | inactive | inactive | – | –
7 | C[C@H](N)P(=O)(O)O[C@H](Cc1ccccc1)C(=O)O | inactive | 8210 | inactive | inactive | – | –
